Reference: ChEMBL document CHEMBL3639333, “Compounds, pharmaceutical compositions and uses thereof” (2014)

These compounds were tested against Acetyl-CoA carboxylase 2 (Homo sapiens, UniProt O00763) (assay: Spectrophotometric 384 Well Assay: Malonyl CoA formation by acetyl CoA carboxylases is stoichometrically linked to the consumption of ATP. ACC2 activity is measured in a NADH-linked kinetic method measuring ADP generated during the ACC reaction using a coupled lactate dehydrogenase/pyruvate kinase reaction.For biological testing, a human ACC2 construct which lacks the 128 amino acids at the N-terminus for increased solubility (nt 385-6966 in Genbank entry AJ575592) is cloned. The protein is then expressed in insect cells using a baculoviral expression system. Protein purification is performed by anion exchange.All compounds are dissolved in dimethyl sulfoxide (DMSO) to a concentration of 10 mM.Assay reactions are then carried out in 384-well plates, with hACC2 in an appropriate dilution and at final assay concentrations (f.c.) of 100 mM Tris (pH 7.5), 10 mM trisodium citrate, 25 mM KHCO3, 10 mM MgCl2, 0.5 mg/mL BSA, 3.75 mM reduced L-glutathione, 15 U/mL lactate dehydrogenase, 0.5 mM phosphoenolpyruvate.).
Sequence of Acetyl-CoA carboxylase 2 (O00763 whole entry): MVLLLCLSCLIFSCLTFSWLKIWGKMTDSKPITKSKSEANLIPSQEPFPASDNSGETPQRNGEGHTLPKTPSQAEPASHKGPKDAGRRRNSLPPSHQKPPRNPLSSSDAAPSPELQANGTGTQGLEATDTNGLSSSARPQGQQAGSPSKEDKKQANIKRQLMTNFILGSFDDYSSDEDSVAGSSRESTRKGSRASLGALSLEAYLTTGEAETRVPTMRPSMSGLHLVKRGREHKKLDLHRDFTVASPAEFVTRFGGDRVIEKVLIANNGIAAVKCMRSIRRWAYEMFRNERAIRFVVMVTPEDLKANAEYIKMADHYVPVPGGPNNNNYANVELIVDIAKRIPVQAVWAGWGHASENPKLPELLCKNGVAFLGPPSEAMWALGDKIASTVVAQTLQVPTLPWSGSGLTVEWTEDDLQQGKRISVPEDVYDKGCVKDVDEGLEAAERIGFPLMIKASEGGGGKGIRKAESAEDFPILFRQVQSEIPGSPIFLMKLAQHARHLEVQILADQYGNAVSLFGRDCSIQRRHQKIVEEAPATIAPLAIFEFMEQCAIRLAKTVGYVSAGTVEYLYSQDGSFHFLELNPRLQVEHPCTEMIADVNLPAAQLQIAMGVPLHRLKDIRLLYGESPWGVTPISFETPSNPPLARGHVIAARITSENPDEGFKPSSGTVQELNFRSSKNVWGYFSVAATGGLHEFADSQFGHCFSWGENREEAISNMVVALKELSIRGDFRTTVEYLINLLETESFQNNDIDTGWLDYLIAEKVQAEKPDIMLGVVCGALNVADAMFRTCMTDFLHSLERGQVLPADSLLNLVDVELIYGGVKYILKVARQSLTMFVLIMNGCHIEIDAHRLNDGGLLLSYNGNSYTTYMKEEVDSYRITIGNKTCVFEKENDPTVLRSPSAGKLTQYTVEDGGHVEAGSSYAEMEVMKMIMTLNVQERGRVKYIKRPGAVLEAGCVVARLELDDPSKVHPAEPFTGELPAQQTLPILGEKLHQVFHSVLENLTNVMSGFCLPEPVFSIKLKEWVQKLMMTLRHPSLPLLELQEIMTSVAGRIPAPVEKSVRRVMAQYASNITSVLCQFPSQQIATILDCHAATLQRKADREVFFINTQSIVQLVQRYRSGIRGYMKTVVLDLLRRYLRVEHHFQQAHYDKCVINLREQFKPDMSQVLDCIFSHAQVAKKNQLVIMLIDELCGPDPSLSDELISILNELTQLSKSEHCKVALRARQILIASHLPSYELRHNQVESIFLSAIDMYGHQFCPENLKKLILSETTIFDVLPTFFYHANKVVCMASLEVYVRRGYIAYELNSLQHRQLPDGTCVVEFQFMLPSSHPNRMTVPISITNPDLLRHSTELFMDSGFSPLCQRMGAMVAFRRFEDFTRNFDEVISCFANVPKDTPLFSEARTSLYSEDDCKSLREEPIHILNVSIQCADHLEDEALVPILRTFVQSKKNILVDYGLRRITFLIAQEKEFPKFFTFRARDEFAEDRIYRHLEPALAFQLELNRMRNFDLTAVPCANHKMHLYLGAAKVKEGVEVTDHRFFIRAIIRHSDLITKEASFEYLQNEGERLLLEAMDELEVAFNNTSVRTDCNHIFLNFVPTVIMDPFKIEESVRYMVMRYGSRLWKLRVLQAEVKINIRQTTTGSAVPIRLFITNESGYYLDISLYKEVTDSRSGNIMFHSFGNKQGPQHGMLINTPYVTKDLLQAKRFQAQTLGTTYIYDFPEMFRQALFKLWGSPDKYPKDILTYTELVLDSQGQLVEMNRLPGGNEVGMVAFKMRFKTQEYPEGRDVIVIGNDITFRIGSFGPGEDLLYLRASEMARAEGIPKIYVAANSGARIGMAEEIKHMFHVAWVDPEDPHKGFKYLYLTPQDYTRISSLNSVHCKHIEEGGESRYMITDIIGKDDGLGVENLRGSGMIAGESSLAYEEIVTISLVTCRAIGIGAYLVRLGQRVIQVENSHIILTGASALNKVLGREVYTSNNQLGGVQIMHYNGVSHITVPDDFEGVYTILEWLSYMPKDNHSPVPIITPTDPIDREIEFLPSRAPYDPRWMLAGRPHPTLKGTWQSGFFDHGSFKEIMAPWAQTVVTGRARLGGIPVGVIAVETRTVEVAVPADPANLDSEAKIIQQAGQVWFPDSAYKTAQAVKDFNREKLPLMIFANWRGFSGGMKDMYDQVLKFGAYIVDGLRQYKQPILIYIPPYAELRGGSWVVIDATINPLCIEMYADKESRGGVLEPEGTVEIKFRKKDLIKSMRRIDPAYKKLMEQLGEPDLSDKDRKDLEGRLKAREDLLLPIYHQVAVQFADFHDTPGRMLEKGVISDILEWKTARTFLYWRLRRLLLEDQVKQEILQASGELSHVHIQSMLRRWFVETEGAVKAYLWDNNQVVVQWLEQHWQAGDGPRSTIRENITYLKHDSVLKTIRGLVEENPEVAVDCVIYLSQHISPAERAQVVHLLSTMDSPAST

| IC50 [µM] | SMILES |
| --- | --- |
| 2.1 | CC(=O)NC(C)Cc1ccc(C#Cc2cccc(C(=O)N3CCC3)c2)cc1 (centres undefined) |
| 0.79 | CCOc1ccc(C#Cc2ccc(CC(C)NC(=O)CC3CC3)cc2)cc1 (centres undefined) |
| 4.2 | CC(=O)NC(C)Cc1ccc(C#Cc2ccc(C(=O)NCC(C)C)cc2)cc1 (centres undefined) |
| 9.9 | CC(=O)NC(C)Cc1ccc(C#Cc2ccnc(NCC(F)F)n2)cc1 (centres undefined) |
